Assay results: the METLIN SMRT retention time set (Domingo-Almenara et al. 2019)

Experiment: gradient 5% acetonitrile 3 min, to 50% in 2 min, to 85% in 15 min, held 3 min, 100 µL/min
Conditions: column: Zorbax Extend-C18 2.1 x 50 mm; eluents: water / acetonitrile, 0.1% formic acid
In short: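 Standards, all pure, were combined into mixtures of ~100 molecules and run at 100 μL/min on a Zorbax Extend-C18 column (2.1 × 50 mm, 1.8 μm) with water and acetonitrile, each containing 0.1% formic acid. A coupled quadrupole time-of-flight mass spectrometer operated in positive and negative ionization mode. Retention time values come from computationally picked adduct peaks, each inspected manually.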

SMILES	RP-LC retention time
COC(=O)c1ccc(NC(=O)Cn2cccc(-c3nc(-c4ccc(F)cc4)no3)c2=O)cc1	877 s
CN(C)N1C(=O)c2c(Cl)c(Cl)c(Cl)c(Cl)c2C1=O	1080 s
Cc1cccc(OCc2nnc(SCC(=O)Nc3nc(-c4ccccc4)cs3)o2)c1	1070 s
Cc1ccc(N2C(=O)C3N=NN(Cc4nc(-c5ccccc5)no4)C3C2=O)cc1C (stereo not given)	1020 s
CNC(=O)C1CN(C(=O)Cc2cccc(Cl)c2)CC12CCCC2 (stereo not given)	740 s
CNC(=O)C1=CCN(C(=O)c2cc(C)cc(C)c2)CC1	705 s
COCc1c(C(=O)O)nnn1-c1ccc(C(C)C)cc1	825 s
CS(=O)(=O)N1CCC(OC2CCN(C(=O)Nc3cccc(F)c3)CC2)CC1	720 s
CCn1cc(-c2ccc(C)cc2)cc1C(=O)NCCOC	919 s
COc1ccc(Cl)cc1NS(=O)(=O)c1cc(-c2cc(C(F)(F)F)[nH]n2)sc1C	1060 s
COc1ccc(F)cc1S(=O)(=O)NC1CCc2nnc(C)n2CC1 (stereo not given)	613 s
CCOc1ccc(/C=C/C(=O)Nc2nc(-c3ccc(C)cc3)cs2)cc1OC	1150 s
Cc1ccc(S(=O)(=O)NCc2ccccc2)cc1	908 s
COc1ccc(OC)c(NC(=O)N2CCc3c(c(-c4nnc(-c5ccc(F)cc5)o4)nn3C)C2)c1	876 s
CCn1ccc(NC(=O)c2ccccc2)n1	694 s
O=C(Nc1nc(-c2ccc3c(c2)OCCO3)cs1)c1ccc2ncsc2c1	857 s
Cc1nnc([C@@H]2CC(F)(F)CN2C(=O)c2ccc3ncccc3c2)o1	607 s
CNC(=O)Cc1csc(NC(=O)CN(C)c2nc3ccccc3s2)n1	624 s
Cc1ccc(-c2ncc(C(=O)Nc3ccc4c(c3)OCCO4)c(-c3ccncc3)n2)cc1	880 s
COc1ccc(OC)c(Nc2c(-c3ccc4c(c3)OCO4)nc3cnccn23)c1	829 s
Cc1cc(F)ccc1NS(=O)(=O)c1cc(-c2[nH]ncc2C(=O)N(C)C)oc1C	697 s
CC1CCC(NC(=O)C2CCCN2S(=O)(=O)c2cc3c(cc2Cl)NC(=O)CO3)CC1 (stereo not given)	840 s
COc1ccccc1-c1noc(CCn2nc(-c3ccc4c(c3)OCO4)ccc2=O)n1	802 s

SMILES	RP-LC retention time
CCOC(=O)c1c(S(=O)(=O)N2CCC(C(=O)NCC3CCCO3)CC2)c(C)n(C)c1C (stereo not given)	674 s
CCN(CC)S(=O)(=O)c1cc(-c2nnc(C)o2)co1	737 s
Cc1ccc(-c2nc(N)n(C(=O)C3CC3)n2)cc1	872 s
O=S(=O)(c1cccc(Cl)c1)N1CC(F)(F)C[C@H]1CN1CCc2ccccc2C1	788 s
Cc1ccccc1Nc1nc(N)c2c(F)cccc2n1	610 s
O=c1cc(CN(Cc2ccccc2)Cc2ccccc2)nc2ccc(Cl)cn12	745 s
Brc1ccccc1Cc1nc(-c2ccn3cnnc3c2)no1	806 s
CCCN1C(=O)c2cc(S(=O)(=O)NCCc3cccs3)ccc2Oc2cccnc21	1050 s
COc1ccc(OC)c(S(=O)(=O)N2CCc3nc(-c4ccc(F)cc4)ncc3C2)c1	1050 s
CC(NC(=O)C1CCCN(c2cnc3nccnc3c2)C1)c1cccnc1 (stereo not given)	598 s
O=C(NC1CCCC1)C1CCN(Cc2noc(-c3ccc(F)cc3)n2)CC1	647 s
CCS(=O)(=O)c1ccc2c(c1)N(Cc1nc(-c3ccc4c(c3)OCO4)no1)C(=O)CO2	859 s
CC(C)(C)c1ccccc1OCC(=O)Nc1nc(-c2ccccc2)cs1	1320 s
CC(=O)Nc1cccc(C(C(F)(F)F)C(F)(F)F)c1	778 s
Cc1ccc(-n2ccnc(NC(=O)Nc3ccc(F)cc3)c2=O)cc1C	1030 s
COc1cccc2cc(C(=O)Nc3nc(-c4ccccc4)cs3)c(=O)oc12	1180 s
Cc1ccc(-c2ccc(-n3nc(C)c(S(=O)(=O)Nc4ccc5c(c4)OCCO5)c3C)nn2)cc1	1010 s
Cc1ccc(-c2nnc(Cc3nc(C(C)C)no3)o2)cc1C	967 s
O=C(NCCc1n[nH]c(Cc2cccc(F)c2)n1)c1ccc2c(c1)OCO2	673 s
COc1ccc(C(=O)N2CCC3(CC2)N=C(c2ccc(Cl)cc2)NO3)cc1	851 s
COc1ccc(Cl)cc1NC(=O)NC(C)C(=O)N1CCc2ccccc21 (stereo not given)	1000 s
COc1cc2c(cc1OC)CN(C(=O)c1cc(-c3ccc(F)cc3)c[nH]1)CC2	847 s
COc1ccc(S(=O)(=O)N2CCN(c3cc(C)nc(N4CCOCC4)n3)CC2)cc1Cl	692 s

The next lines start with the values.

RP-LC retention time	SMILES
829 s	Cc1cc(C2CCCN2C(=O)Cc2c(F)cccc2Cl)no1 (stereo not given)
708 s	CC1CCC2(CC1)NC(=O)N(CC(=O)Nc1ccc3c(c1)OCO3)C2=O (stereo not given)
617 s	O=C(Cn1cccc1-c1nnc(-c2ccccc2)o1)NCc1cccnc1
1010 s	CCCn1ccc2sc(C)c(C(=O)NCC3CCCCC3)c2c1=O
784 s	O=C(C1CC1)N1CCCn2nc(-c3cccc(F)c3)cc2C1
766 s	Cc1ccc(-c2cc3n(n2)CCCN(C(=O)c2ccccn2)C3)cc1
620 s	Cc1nnc(N2CCC(C(=O)N3CCOCC3)CC2)c2nn(-c3ccccc3)c(C)c12
1050 s	CCOC(=O)c1c(C)c(C(=O)C(C)N(CC)C(=O)c2ccccc2Cl)c(C)n1CC (stereo not given)
808 s	Cc1cccc(NS(=O)(=O)c2cc3n(c2)CCN(CC(C)C)C3=O)c1
702 s	CC1=C(c2ccccc2)S(=O)(=O)N=C1N1CCCN(C(=O)C2CCCO2)CC1 (stereo not given)
656 s	CCc1ccc(Oc2cc(N3CCC(C(=O)NCCc4ccccn4)CC3)ncn2)cc1
960 s	CCc1nc(-c2csc(S(=O)(=O)N3CCCC(C(=O)NCc4ccccc4)C3)c2)no1 (stereo not given)
680 s	CCC1CN(CC(=O)NCCN(CC)CC)c2ccccc2S1 (stereo not given)
762 s	Cc1ccc(NC(=O)N2CCC3(CC2)NC(=O)c2ccccc2O3)cc1
1050 s	COc1cccc(S(=O)(=O)N2CCc3nc(-c4ccccc4)ncc3C2)c1
705 s	Cc1ccc(C)c(NC(=O)Cn2cnc3nc4c(cc3c2=O)CCCC4)c1
646 s	COc1ccc(CNC(=O)C2CCN(c3nnc4cccc(C)n34)CC2)cc1
590 s	Cc1noc(CNC(=O)C2CCN(C(=O)Cc3ccccc3Cl)CC2)n1
662 s	O=C1Nc2ccc(S(=O)(=O)N3CCN(c4ccccn4)CC3)cc2C1=C1CCCC1
838 s	COC(=O)c1cc(OCC(=O)Nc2cc(F)ccc2F)c2ccccc2n1
754 s	COc1ccc(C(C)NC(=O)C2CCN(C(=O)c3ncn4c3COC(c3ccccc3)C4)CC2)cc1 (stereo not given)
806 s	CCN1c2ccc(C)cc2C(=O)NC12CCN(C(=O)c1ccccc1F)CC2

RP-LC retention time	SMILES
904 s	CC1CC(=O)N(CC(=O)Nc2ccc(C(F)(F)F)cc2)c2ccccc2S1(=O)=O (stereo not given)
576 s	CC(=O)N1CCc2cc(-c3ccc(C(=O)NCCN4CCCCCC4)cc3)ccc21
806 s	Cc1ccc(NS(=O)(=O)c2ccc3c(c2)CCCC(=O)N3)cc1Cl
618 s	O=C(NCc1ccc(N2CCOCC2)nc1)c1ccc(Cl)s1
931 s	Cc1ccc(NC(=O)CN2C(=O)CCc3cc(Br)ccc32)cc1
751 s	Cc1sc2ccn(C)c(=O)c2c1C(=O)NCc1ccccc1F
680 s	O=C(NCc1cccc(F)c1)C1CCN(c2cnc3nccnc3c2)CC1
914 s	Cn1nc(-c2nc(-c3ccccc3)no2)c2c1CCN(C(=O)NC1CCCCC1)C2
718 s	Cn1cc(CC(=O)N2CCC(C(=O)NCC(F)(F)F)CC2)c2ccccc21
558 s	CCNC(=O)C1CCN(c2nccc3sccc23)CC1
638 s	O=C(NC1CC(=O)N(C2CC2)C1)c1cc2ccccc2[nH]1 (stereo not given)
920 s	CC(=O)Nc1cccc2c(C(=O)N3CCN(c4cccc(Cl)c4)CC3)ccnc12
809 s	CCOc1ccccc1NC(=O)N1CCCC1c1nc(-c2ccccc2OC)no1 (stereo not given)
607 s	CNC(=O)N1CCCC(c2cccc(C(=O)NCc3ccc(N(C)C)cc3)c2)C1 (stereo not given)
769 s	O=C(Nc1ccc(N2CCCCS2(=O)=O)cc1)OCc1ccccc1
952 s	CCN1C(=O)COc2ccc(-c3csc(NC(=O)c4ccccc4)n3)cc21
863 s	CCCC(=O)Nc1cccc(NC(=O)c2ccccc2Br)c1
794 s	COc1ccc(NC(=O)Cn2nc(N3CCOCC3)c3ccccc3c2=O)cc1Cl
592 s	Cn1ncc2c3ccccc3n(CC(=O)NCCCN3CCCC3)c2c1=O
800 s	Cc1ccc(C(=O)N2C[C@@H](F)C[C@H]2C(=O)N2CCc3ccccc3C2)s1
898 s	Cc1noc(-c2ccc(-n3ncc(C(=O)NCCc4c[nH]c5ccccc45)c3C)nc2)n1
733 s	Cc1cc(C(=O)Nc2c3c(nn2-c2ccccc2)CCC3)nn1C
